Data from the supplement of paper PMC10307832.

How the values were obtained:
Assay in all cases: relative viability (nuclei count vs DMSO), 5 days (fraction); higher = more cells survive
[1] = compound: C1=CC2=NC=CN=C2C=C1/C=C/3\C(=O)NC(=O)S3 + CC(=O)c1c(C)c2cnc(Nc3ccc(N4CCNCC4)cn3)nc2n(C2CCCC2)c1=O [Palbociclib] (partner 0.5 µM)
How it was run: (§1)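 Lung cancer cell lines were pin-tool dosed in 1536-well plates on the day after seeding, with either a lone drug or a fixed anchor-drug dose plus five library-drug doses (not always all listed) in √10 steps. Nuclei were counted on 4× images after 5 days. Relative viability is the ratio of treated-well to vehicle-well nuclei counts, with each value a median of duplicate plates.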

[2] = compound: C1=CC2=NC=CN=C2C=C1/C=C/3\C(=O)NC(=O)S3 + CC1(C)CCC(c2ccc(Cl)cc2)=C(CN2CCN(c3ccc(C(=O)NS(=O)(=O)c4ccc(N[C@H](CCN5CCOCC5)CSc5ccccc5)c(S(=O)(=O)C(F)(F)F)c4)cc3)CC2)C1 [Navitoclax] (partner 0.5 µM)
How it was run: as §1

BGJ398 + Crizotinib = compound: CCN1CCN(c2ccc(Nc3cc(N(C)C(=O)Nc4c(Cl)c(OC)cc(OC)c4Cl)ncn3)cc2)CC1 [BGJ398] + C[C@@H](Oc1cc(-c2cnn(C3CCNCC3)c2)cnc1N)c1c(Cl)ccc(F)c1Cl [Crizotinib] (partner 1 µM)
How it was run: as §1

BGJ398 + Linsitinib = compound: CCN1CCN(c2ccc(Nc3cc(N(C)C(=O)Nc4c(Cl)c(OC)cc(OC)c4Cl)ncn3)cc2)CC1 [BGJ398] + C[C@]1(O)C[C@@H](c2nc(-c3ccc4ccc(-c5ccccc5)nc4c3)c3c(N)nccn32)C1 [Linsitinib] (partner 1 µM)
How it was run: as §1

Row | Cell Line | relative viability ([1]; first compound 0.02 µM) | relative viability ([1]; first compound 0.06325 µM) | relative viability ([1]; first compound 0.2 µM) | relative viability ([1]; first compound 0.6325 µM) | relative viability ([1]; first compound 2 µM) | relative viability ([2]; first compound 0.02 µM) | relative viability ([2]; first compound 0.06325 µM) | relative viability ([2]; first compound 0.2 µM) | relative viability ([2]; first compound 0.6325 µM) | relative viability ([2]; first compound 2 µM) | relative viability (BGJ398 + Crizotinib; first compound 0.01 µM) | relative viability (BGJ398 + Crizotinib; first compound 0.03162 µM) | relative viability (BGJ398 + Crizotinib; first compound 0.1 µM) | relative viability (BGJ398 + Crizotinib; first compound 0.3162 µM) | relative viability (BGJ398 + Crizotinib; first compound 1 µM) | relative viability (BGJ398 + Linsitinib; first compound 0.01 µM) | relative viability (BGJ398 + Linsitinib; first compound 0.03162 µM) | relative viability (BGJ398 + Linsitinib; first compound 0.1 µM) | relative viability (BGJ398 + Linsitinib; first compound 0.3162 µM) | relative viability (BGJ398 + Linsitinib; first compound 1 µM)
1 | NCI-H1792 | 0.652 | 0.471 | 0.663 | 0.595 | 0.425 | 0.597 | 0.621 | 0.564 | 0.658 | 0.401 | 0.939 | 0.999 | 1.08 | 0.99 | 0.93 | 0.482 | 0.511 | 0.551 | 0.63 | 0.287
2 | NCI-H1915 | 0.538 | 0.578 | 0.561 | 0.512 | 0.533 | 0.757 | 0.796 | 0.806 | 0.732 | 0.797 | 0.847 | 0.869 | 0.998 | 0.936 | 0.886 | 1.05 | 1.04 | 1.12 | 1.19 | 1.13
3 | NCI-H1944 | 0.287 | 0.289 | 0.352 | 0.312 | 0.331 | 1.02 | 1.05 | 1.08 | 0.95 | 1.04 | 0.994 | 1.07 | 1.13 | 1.09 | 1.19 | 1.17 | 1.22 | 1.28 | 1.2 | 1.28
4 | NCI-H1975 | 0.465 | 0.683 | 0.563 | 0.56 | 0.394 | 0.998 | 1.12 | 1.04 | 0.974 | 0.981 | 1.03 | 0.979 | 1.1 | 1.07 | 0.948 | 1.08 | 1.07 | 1.11 | 1.03 | 0.965
5 | NCI-H1993 | 0.623 | 0.68 | 0.58 | 0.603 | 0.331 | 0.759 | 0.982 | 0.921 | 0.956 | 0.743 | 0.866 | 0.794 | 0.912 | 0.959 | 0.922 | 0.764 | 0.791 | 0.752 | 0.894 | 0.729
6 | NCI-H2009 | 0.241 | 0.241 | 0.216 | 0.171 | 0.16 | 1.2 | 1.2 | 1.15 | 1.21 | 1.23 | 1 | 1.04 | 1.02 | 1.04 | 1.02 | 1.18 | 1.24 | 1.14 | 1.16 | 1.17
7 | NCI-H2023 | 0.405 | 0.408 | 0.314 | 0.337 | 0.27 | 1.01 | 1.11 | 1.02 | 1.02 | 0.978 | 0.618 | 0.62 | 0.605 | 0.747 | 0.655 | 0.602 | 0.831 | 0.657 | 0.688 | 0.646
